Measurements published in US7807711B2, “Medicinal acidic cannabinoids” (priority 2004, dated 2010).
Where two headings read alike, the source gives them in different places.

Tests used:
[1] = system: mRNA coding for interleukin-10 (IL-10); test: IL-10 mRNA level (RT-PCR) in PHA-stimulated PBMC; format: cell-based; conditions: PBMC stimulated by PHA, incubation 4 days; relative to β-actine
recombinant human CB1 = target: T1, recombinant human CB1 (Homo sapiens, UniProt P21554); test: biochemical; format: binding
T1 construct: expressed in transfected cells; host or cells: Sf9 cells

[2] = system: mRNA coding for TNF-alpha; test: TNF-alpha mRNA level (RT-PCR) in PHA-stimulated PBMC; format: cell-based; conditions: PBMC stimulated by PHA, incubation 4 days; relative to β-actine
[3] = system: Experimental Autoimmune Encephalomyelitis; test: Mouse model for Experimental Autoimmune Encephalomyelitis; format: in vivo; conditions: SJL mice, day 0-20
Protocol: The effect of purified THC-acid and unheated cannabis extracts were tested in vivo in a mouse model for Experimental Autoimmune Encephalomyelitis.
Between day 0 and day 20 after onset of the disease the mice were treated daily with a specified oral dose of THC-acid or unheated extract according to the following scheme:
Group 1: vehicle (0.2 mL olive oil/day);
Group 2: 1 mg purified THC-acid in 0.2 mL olive oil/day;
Group 3: unheated cannabis extract in 0.2 mL olive oil containing 1 mg THC-acid/day.
1: mild perivascular accumulation
2: mild perivascular accumulation, multi-focal
3: perivascular accumulation, multiple cell layers, multi-focal.

recombinant human CB2 = target: T2, recombinant human CB2 (Homo sapiens, UniProt P34972); test: Competitive receptor binding against tritium labelled CP55,940, CB2
T2 construct: expressed in transfected cells; host or cells: Sf9 cells
T2 sequence (P34972 whole entry): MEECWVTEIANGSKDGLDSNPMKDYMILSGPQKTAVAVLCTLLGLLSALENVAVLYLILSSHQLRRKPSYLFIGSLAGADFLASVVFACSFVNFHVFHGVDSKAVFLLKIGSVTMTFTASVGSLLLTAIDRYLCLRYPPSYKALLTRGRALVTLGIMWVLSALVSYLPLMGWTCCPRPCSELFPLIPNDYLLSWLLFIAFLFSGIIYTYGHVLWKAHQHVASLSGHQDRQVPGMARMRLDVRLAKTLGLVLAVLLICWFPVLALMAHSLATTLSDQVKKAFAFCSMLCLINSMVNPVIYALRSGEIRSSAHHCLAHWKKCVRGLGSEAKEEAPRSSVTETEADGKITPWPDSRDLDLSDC

T1 sequence (P21554 whole entry): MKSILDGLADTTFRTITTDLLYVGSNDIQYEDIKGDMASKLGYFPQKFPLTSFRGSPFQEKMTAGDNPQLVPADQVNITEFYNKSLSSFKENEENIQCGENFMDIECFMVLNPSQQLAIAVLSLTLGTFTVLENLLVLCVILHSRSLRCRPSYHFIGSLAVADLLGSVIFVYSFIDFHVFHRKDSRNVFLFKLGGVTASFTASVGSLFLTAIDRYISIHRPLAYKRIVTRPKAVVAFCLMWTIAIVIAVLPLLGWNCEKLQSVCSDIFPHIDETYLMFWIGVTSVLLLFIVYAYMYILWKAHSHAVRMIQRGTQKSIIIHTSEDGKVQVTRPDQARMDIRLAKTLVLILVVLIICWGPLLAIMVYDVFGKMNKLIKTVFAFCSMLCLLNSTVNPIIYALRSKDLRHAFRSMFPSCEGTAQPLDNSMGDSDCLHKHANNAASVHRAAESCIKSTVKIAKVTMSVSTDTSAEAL

SMILES	level of the anti-inflammatory cytokine IL-10 (mRNA) [1]	Kd (recombinant human CB1; purified components, Sf9 cells, read-out: Kd CB1)	level of the pro-inflammatory cytokine TNFα (mRNA) [2]	number of inflammatory cells in the brain stem compared to vehicle ([3]; 1 mg THC-acid/day oral in olive oil, sacrificed after 42 days)	clinical score ([3]; 1 mg THC-acid/day oral, FIG. 4)	Kd (recombinant human CB2; purified components, Sf9 cells, read-out: Kd CB2)	Kd (recombinant human CB1)	Kd (recombinant human CB2)
CCCCCc1cc2c(c(O)c1C(=O)O)C1C=C(C)CCC1C(C)(C)O2 (centres unmarked) [THC-A, Δ^9-tetrahydrocannabinolic acid]	increase	> 1000 nM	decrease	reduced the number of inflammatory cells in the brain stem significantly	improved the clinical score significantly	> 1000 nM	–	–
CCCCCc1cc(O)c2c(c1)OC(C)(C)c1ccc(C)cc1-2 [CBN*, cannabinol, reference compound]	–	–	–	–	–	–	36 nM	17 nM
